Patent publication US12709734B2, “Human polarised three-dimensional cellular aggregates” (CAMBRIDGE ENTERPRISE LIMITED, priority 2018, dated 2026)
“Also recorded” adds a separate entry of the source.

Tests used:
[1] = tested on: HYS01030 human induced pluripotent stem cell (iPSC) line; test: Gastruloid formation from human induced pluripotent stem cells; assay type: cell-based; details: 3.5 uM Chiron 1 day before aggregation, aggregated in Chiron and ROCK inhibitor
From the text: FIG. 8: Human gastruloids made from induced pluripotent stem cells. […] 6 representative examples are show. […] There is also some sign of a rosette-like or lumenised structure that expresses SOX2 in the posterior tip (arrowhead). 3 representative examples are shown.
We used a wild type hESC line (mSHEF7; REF) as well as two transgenic lines, the H9TV BRACHYURY-Venus reporter (Mendjan et al., 2014) and RUES2-GLR, the triple reporter for germ layer markers with BRACHYURY-H2B-mCerulean, SOX17-H2B-tdTomato and SOX2-mCitrine (Simunovic et al., 2018). We also used a human induced pluripotent stem cell line, known as HYS01030 (unpublished).

[2] = tested on: RUES2-GLR human gastruloids; test: Human gastruloid formation: elongation and germ layer reporter patterning after pre-treatment; assay type: cell-based; details: for elongation / BRA expression of gastruloids: 24 h pre-treatment of RUES2-GLR cells in Nutristem with the named factor (Wnt3a 100 ng/ml or BMP4 50 ng/ml instead of Chiron); for SOX2 expression domain / SOX17 expression: Chiron + 10 μM SB431542 24 h pre-treatment vs Chiron only, RUES2-GLR reporter
Experimental: (§1) Before aggregation, hESCs cultured in 6-well plates were typically pretreated with 3-3.5 μM CHIR99021 (Chiron) in Nutristem for 24 h, unless otherwise stated.
For signal modulation experiments, RUES2-GLR cells were pre-treated for 1 day in Nutristem supplemented with 100 ng/ml recombinant human Wnt3a (5036-WN-010) or 50 ng/ml BMP4 (314-BP), and aggregated in E6 and ROCK inhibitor with additional supplementation as shown. Subsequent media changes were performed daily with E6 alone. To test the effect of signal modulation on gastruloid formation, RUES2-GLR cells were pre-treated in Nutristem supplemented with 3.25 μM Chiron and one of 1 μM LDN193189 (04-0074), 1 μM XAV-939 (04-0046), or 10 μM SB431542 (1614) before aggregation in E6 with 0.5 μM Chiron and ROCK inhibitor, unless otherwise stated. Subsequent media changes were performed daily with E6 alone.
An alternative, ‘dorsalised’ protocol used 3 μM Chiron, supplemented with 10 μM SB431542 Nodal inhibitor (SB431542) also in Nutristem for 24 h.
After pre-treatment, hESCs at 60-85% confluency were washed twice with PBS−/−. For detachment, 2 ml 0.5 mM EDTA in PBS−/− was applied per well and cells were incubated at 37° C., 5% CO2 for 6.5 min. The plate was then carefully tapped against a solid object to promote detachment and the suspension was pipetted up and down repeatedly (5-10−) with a P1000 to break remaining clumps into single cells.
The suspension was then transferred into a 15 ml centrifuge tube with 8 ml PBS−/− and centrifuged for 3-5 min at 1000 rpm. The supernatant was removed, cells were washed with PBS−/− and spun down again 3-5 min at 1000 rpm. Subsequently, depending on the pellet size, cells were resuspended in 500 μl to 2 ml Essential 6 (E6) medium (Gibco, life technologies) and counted using an automated cell counter (MoxiZ, Orflo). Optimal cell density should be around 1×10^6/ml. The specific number of cells optimized per cell line (400/well for RUES2-TR, 500/well for mSHEF7 and H9TV lines) were then added to E6 supplemented with 5 μM Rock Inhibitor and 3 μM Chiron. Using a multichannel pipette, cells in this suspension were plated in 40 μl per well of an ultra-low adhesion, round bottom 96-well plate (Costar, Corning Inc.). At 24 h after aggregation, 150 μl E6 were added into each well using a multichannel pipette. E6 (see Chen et al., 2011) was continuously exchanged every subsequent day by removing 150 μl per well and adding the same amount.
Human gastruloids made using the RUES2-GLR reporter line were specifically analysed for dynamic reporter expression. An in-house MATLAB script was developed to assess the dynamic fluorescent marker expression along the AP axis of human gastruloids. Widefield images of gastruloids were taken at 24 h, 48 h and 72 h and aligned along their anteroposterior axis with reference to fluorescent reporter expression. For each sample, a binary image was generated in the brightfield channel and used as a mask for all fluorescent channels and the major (length) axis was identified. Consequently, for every pixel along the length axis, the sum of intensity values of the respective channel along the width of the aggregate was divided by the width of the gastruloid at that specific point, yielding the normalized fluorescence intensity along the length of the sample. This process was then repeated for every acquired fluorescent channel. Gastruloids used for this analysis were a full set from one experimental batch, and images were only excluded from the analysis when anteroposterior alignment or binarization were unsuccessful.
In order to quantify the degree of elongation of human gastruloids, brightfield channel widefield images were imported into Fiji (Schindelin et al., 2012). The length of the longest axis was measured using the line tool, followed by the length of the perpendicular axis at the mid-point of the longest axis line. […]

[3] = tested on: hESCs (RUES2-GLR, MasterShef7); test: Effect of Chiron pre-treatment on adherent hESCs (RT-qPCR, immunostaining); assay type: cell-based, human
Experimental: We pre-treated hESCs for 1 day in pluripotency medium supplemented with 3-3.5 μM of the Wnt signalling agonist, CHIR99021 (hereafter referred to as Chiron) before aggregation; effectively shifting the Chiron pulse to before the aggregation rather than 48 h after aggregation as is the case in mouse gastruloids (Baillie-Johnson, P., et al., 2015).
as §1
Adherent cell staining was done using 1:200 Mouse anti-CDH2 (BD Biosciences, BD10920), 1:200 Rat anti-CDH1 (Takara, M108) and 1:200 Rabbit anti-BRACHYURY (AbCam, ab209665) primary antibodies. Quantification was performed using Fiji software on the whole image (histograms) or using a line ROI through the colony (line graph).
Gene expression was analysed from adherent cells using Trizol (Ambion LifeTechnologies) according to manufacturer's instructions. Total RNA was quantified using a NanoDrop 2000C (ThermoScientific) and 5 μg was added to a reverse transcription reaction with Superscript III (Invitrogen) according to manufacturer's instructions. Resultant cDNA was quantified by qPCR with SYBRGreen (Merck) using a liquid handling robot (Qiagility, Qiagen) and analysed on a RotorGeneQ thermocycler (Qiagen). Primer sequences can be found in Supplementary Table 1. Concentration of cDNA was estimated using an in-house MAK2 analysis method.

[4] = tested on: RUES2-GLR human gastruloids; test: Tomo-sequencing of Chiron vs Chiron+SB431542 pre-treated human gastruloids; assay type: cell-based
Experimental: An alternative, ‘dorsalised’ protocol used 3 μM Chiron, supplemented with 10 μM SB431542 Nodal inhibitor (SB431542) also in Nutristem for 24 h. Tomo-sequencing was performed and analysed in an updated version of published methods (Junker et al., 2014; and Kruse et al., 2016). In short, gastruloids were sectioned along their AP axis, and the mRNA-content of each section was extracted using SORT-seq (Muraro et al., 2016). Paired end (75 bp) sequencing was performed on the resulting RNA-seq libraries using the Illumina Next-Seq sequencing platform. Read 1 contains the cell or section barcode and the unique molecular identifier (UMI). Read 2 contains the biological information. Reads 2 with a valid cell/section barcode were selected and mapped using STAR-2.5.3a with default parameters to the human GRCh38 genome (ENSEMBL version 93), and only reads mapping to gene bodies (exons or introns) were used for downstream analysis. Reads mapping simultaneously to an exon and to an intron were assigned to the exon. Mappabilities for the different samples range between 44% and 47%. For each cell or section, the number of transcripts was obtained as previously described […]. We refer to transcripts as unique molecules based on UMI correction. […] In each gastruloid, data was then normalized to the median number of unique transcripts per slice, and the z-score of each gene was extracted along sections. The reproducibility of AP expression pattern between different gastruloid replicates was scored for each gene using a random background model to calculate the Pearson correlation coefficient p-value. The p-value threshold to select reproducible genes was set at 0.001. […] Differential gene expression was performed by normalizing the transcripts in each section to 100,000 for all gastruloids; then pooling all sections of each gastruloid together; and finally assessing significant differentially expressed genes based on total expression using the Binomial test. An alternative, ‘dorsalised’ protocol used 3.25 μM Chiron, supplemented with 10 μM SB431542 Nodal inhibitor (SB431542) also in Nutristem for 24 h. They were then aggregated in E6 with 3 μM Chiron and ROCK inhibitor.

[5] = 120 h Chi+SB43 vs 72 h Chiron pre-treated gastruloids
[6] = Chi+SB43 vs Chi pre-treated gastruloids
[7] = Chiron + SB431542 pre-treated vs Chiron pre-treated gastruloids
[8] = of genes reproducible in either or both conditions, Chi+SB43 vs Chi

## Cc1c[nH]c(-c2cnc(NCCNc3ccc(C#N)cn3)nc2-c2ccc(Cl)cc2Cl)n1 [Chiron, CHIR99021]
[1]
  morphology of iPSC-derived aggregates: polarised in their morphology at 72 hours
[2]
  elongation / BRA expression of gastruloids: strictly dependent on the Chiron pre-treatment
[2]; 72 h after aggregation, Chiron pre-treated RUES2-GLR, average of experiments
  aggregates displaying an elongated morphology: ~ 66%
[3]; 24 h Chiron pre-treatment vs Nutristem alone, RT-qPCR, RUES2-GLR
  expression of NANOG: increased expression
[3]; 24 h Chiron pre-treatment vs Nutristem, immunostaining of adherent colonies
  expression and membrane localisation of CDH1 (E-cadherin) / CDH2 (N-cadherin): switch in the expression and membrane localisation of CDH1 (E-cadherin) towards CDH2 (N-cadherin; also recorded: increase in the expression of membrane localised CDH2 (N-cadherin)
[3]; 1 day Chiron pre-treatment vs pluripotency medium alone, RT-qPCR
  expression of mesendodermal marker genes (BRA, MIXL1, LEFTY1, LEFTY2, AXIN2, EOMES, CDX1): increased expression
[3]; 1 day pre-treatment with 3-3.5 μM Chiron vs pluripotency medium (Nutristem) alone, RT-qPCR
  expression of pluripotency markers (POU5F1, SOX2): levels equivalent to cells maintained in pluripotency medium alone; also recorded: levels comparable to cells maintained in pluripotency medium alone
[3]; 1 day pre-treatment with 3-3.5 μM Chiron vs pluripotency medium alone, RT-qPCR
  levels of SOX2: slightly reduced

## NC(=O)c1ccc(-c2nc(-c3ccc4c(c3)OCO4)c(-c3ccccn3)[nH]2)cc1 [SB431542]
[2]; Chiron + 10 μM SB431542 24 h pre-treatment
  BRA expression pattern: diffuse expression of BRA that approximated a gradient from anterior to posterior
[2]
  SOX2 expression domain: distinctly larger domains of SOX2 expression
  SOX17 expression: fewer, if any, SOX17 expressing cells
[2]; listed as SB43
  SOX2 expression domain: larger, well-defined SOX2 domain at their posterior end
  SOX17 expression: absence of detectable SOX17 expression
[2]; Chiron + 10 μM SB431542 24 h pre-treatment, compared to original method
  elongation and polarisation of gene expression: able to elongate and polarise their gene expression
[4]; [5]
  genes reproducibly localised in both conditions: 301 genes
  genes with loss of reproducible localisation: 509 genes
  genes with novel spatial localisation acquired: 944 genes
[4]; [6]
  expression of HOX genes (HOXC9, HOXA9, HOXC6) and SOX2: up-regulation
  expression of Nodal signalling components and targets: down-regulation
  expression of cardiac development genes (TBX5, GATA6, LBX1, NKX2.5): loss of many genes
  expression of definitive endoderm genes (SHH, LHX1, CER1, FOXA3, SORCS2, FOXA2): decrease in expression
[4]; [7]
  domain-size and level of expression of SOX2 and SOX3: increase in the domain-size and level of expression
  expression of BRA, CYP26A1 and WNT3A in the posterior domain: comparable to the Chiron pre-treated human gastruloids
  expression of FOXA2: very little expression
  expression of Node-like markers NODAL, NOTO, PITX2, DAND5: no detectable expression
  expression of asymmetry markers LEFTY1, LEFTY2 and anterior cardiac mesoderm markers GATA4, GATA6, HAND2: little or no expression
[4]; Chiron + SB431542 pre-treated vs Chiron pre-treated gastruloids (central region)
  localisation of somitogenesis-like genes (MEOX, TCF15): become anteriorly localised
[4]; [8]
  genes differentially expressed between the two treatments: 564 genes
  proportion of genes differentially expressed between the two treatments: 33%

B1: BMP4: BMP4 protein used for pre-treatment, 50 ng/ml (protein, UniProt P12644 293-408, looked up)
Bone morphogenetic protein 4: SPKHHSQRARKKNKNCRRHSLYVDFSDVGWNDWIVAPPGYQAFYCHGDCPFPLADHLNSTNHAIVQTLVNSVNSSIPKACCVPTELSAISMLYLDEYDKVVLKNYQEMVVEGCGCR
[2]
  elongation / BRA expression of gastruloids: insufficient to promote elongation or BRA expression

B2: Wnt3a: recombinant human Wnt3a (protein, UniProt P56704 19-352, looked up)
Protein Wnt-3a: SYPIWWSLAVGPQYSSLGSQPILCASIPGLVPKQLRFCRNYVEIMPSVAEGIKIGIQECQHQFRGRRWNCTTVHDSLAIFGPVLDKATRESAFVHAIASAGVAFAVTRSCAEGTAAICGCSSRHQGSPGKGWKWGGCSEDIEFGGMVSREFADARENRPDARSAMNRHNNEAGRQAIASHMHLKCKCHGLSGSCEVKTCWWSQPDFRAIGDFLKDKYDSASEMVVEKHRESRGWVETLRPRYTYFKVPTERDLVYYEASPNFCEPNPETGSFGTRDRTCNVSSHGIDGCDLLCCGRGHNARAERRREKCRCVFHWCCYVSCQECTRVYDVHTCK
[2]
  elongation / BRA expression of gastruloids: insufficient to promote elongation or BRA expression
